Test systems include MDA-MB-231 breast; MALME-3M melanoma; MDA-MB-435; OVCAR-4 ovarian; HCT-15 colon; OVCAR-3 ovarian; MCF7 breast; SF-295 CNS; A498 renal; HT29 colon.
Test in all cases: NCI-60 cell line screen, 48 h

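The compound was tested at five concentrations on cells cultured in 96-well plates, with a 48-hour exposure period. At the GI50, growth is halved. Definition used: TGI = concentration required for complete inhibition of growth.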

Consider `NC(N)=N/N=C(/c1ccccc1)c1ccc(Cl)cc1`, for which the GI50 with MDA-MB-231 breast is 16.5 µM; with MALME-3M melanoma it was 53.3 µM; in the test with MDA-MB-435 it was 2.74 µM; in the test with OVCAR-4 ovarian, 19 µM; in the test with HCT-15 colon, 5.8 µM; with OVCAR-3 ovarian, 2.88 µM. Besides, the GI50 with MCF7 breast was 3.69 µM; in the test with SF-295 CNS, 10.3 µM; in the test on A498 renal, 4.71 µM; in the test on HT29 colon it was 2.93 µM. For the same compound, the TGI in the test on MDA-MB-231 breast was 56.6 µM; in the test on MALME-3M melanoma it was over 100 µM; in the test with MDA-MB-435, 9.27 µM; with OVCAR-4 ovarian, over 100 µM; with HCT-15 colon it was over 100 µM; with OVCAR-3 ovarian, 12.1 µM. Moreover, the TGI in the test with MCF7 breast is over 100 µM; with SF-295 CNS it was over 100 µM; with A498 renal it was 28.7 µM; in the test with HT29 colon, 24.9 µM.

In the case of `c1ccc2c(-c3nc4ccccc4[nH]3)cccc2c1`, the GI50 with MDA-MB-231 breast was 9.65 µM; in the test with MALME-3M melanoma it was 3.81 µM; in the test on MDA-MB-435, 0.309 µM; with OVCAR-4 ovarian, 10.9 µM; with HCT-15 colon it was 1.82 µM; in the test with OVCAR-3 ovarian it was 2.17 µM. The GI50 in the test with MCF7 breast was 2.94 µM; in the test on SF-295 CNS it was 2.98 µM; with A498 renal, 1.11 µM; in the test with HT29 colon, 2.68 µM. The TGI was over 100 µM with MDA-MB-231 breast; 34.9 µM in the test on MALME-3M melanoma; 1.44 µM in the test on MDA-MB-435; over 100 µM in the test on OVCAR-4 ovarian; over 100 µM with HCT-15 colon; 6.89 µM in the test on OVCAR-3 ovarian. Moreover, the TGI in the test on MCF7 breast was found to be 37.9 µM; in the test with SF-295 CNS it was 29.1 µM; in the test with A498 renal, 6.52 µM; in the test with HT29 colon, 11.8 µM.

Regarding `COc1cc(/C=C/C(=O)C(C(=O)/C=C/c2ccc(OC(=O)CCNc3nnc(C)s3)c(OC)c2)C(=O)CCNc2nnc(C)s2)ccc1OC(=O)CCNc1nnc(C)s1`, the GI50 in the test on MDA-MB-231 breast is 2.23 µM; with MALME-3M melanoma it was 2.72 µM; in the test on MDA-MB-435, 2.06 µM; in the test on OVCAR-4 ovarian, 4.76 µM; in the test on HCT-15 colon, 2.47 µM; with OVCAR-3 ovarian it was 2.4 µM. Further, the GI50 in the test with MCF7 breast was 2.16 µM; in the test on SF-295 CNS, 6.8 µM; with A498 renal, 2.51 µM; in the test with HT29 colon, 1.63 µM. The TGI was 7.4 µM in the test with MDA-MB-231 breast; 6.51 µM with MALME-3M melanoma; 6.98 µM in the test on MDA-MB-435; over 61.5 µM in the test on OVCAR-4 ovarian; 5.86 µM with HCT-15 colon; 6.95 µM in the test on OVCAR-3 ovarian. For the same compound, the TGI with MCF7 breast came to 12.6 µM; with SF-295 CNS, 20.2 µM; in the test on A498 renal, 6.67 µM; in the test on HT29 colon it was 3.56 µM.

`O=C(Nc1cccnc1)c1cccc([N+](=O)[O-])c1`: the GI50 in the test with MDA-MB-231 breast, with MALME-3M melanoma, with MDA-MB-435, in the test on OVCAR-4 ovarian, in the test on HCT-15 colon and in the test with OVCAR-3 ovarian was over 100 µM throughout. In addition, the GI50 in the test with MCF7 breast, in the test with SF-295 CNS, in the test with A498 renal and with HT29 colon was over 100 µM each time. Besides, the TGI with MDA-MB-231 breast, in the test with MALME-3M melanoma, with MDA-MB-435, with OVCAR-4 ovarian, with HCT-15 colon and in the test on OVCAR-3 ovarian was over 100 µM throughout. Also, the TGI in the test with MCF7 breast, with SF-295 CNS, in the test with A498 renal and in the test on HT29 colon was over 100 µM throughout.

With `O[C@@H]1CCCN1Cc1cc2cc3c(cc2c2cc(OCc4ccccc4)ccc12)OCO3`, the GI50 with MDA-MB-231 breast was 2.18 µM; with MALME-3M melanoma it was 2.37 µM; in the test with MDA-MB-435, 2 µM; with OVCAR-4 ovarian, 5.45 µM; with HCT-15 colon it was 3.47 µM; in the test with OVCAR-3 ovarian, 3.73 µM. In addition, the GI50 with MCF7 breast was 2.15 µM; with SF-295 CNS, 1.95 µM; with A498 renal, 10.5 µM; in the test on HT29 colon it was 1.94 µM. The TGI came out at 5.59 µM in the test with MDA-MB-231 breast; 5.44 µM with MALME-3M melanoma; 4.29 µM in the test on MDA-MB-435; 20.3 µM in the test with OVCAR-4 ovarian; 12.3 µM in the test on HCT-15 colon; 14.5 µM in the test with OVCAR-3 ovarian. The TGI with MCF7 breast came out at 5.07 µM; in the test with SF-295 CNS, 4.23 µM; in the test on A498 renal it was 25.3 µM; in the test with HT29 colon, 5.09 µM.

As for `O=C(NCC(=O)N1CC[C@H](NC2CCC(O)(c3ccc(-c4ncccn4)cn3)CC2)C1)c1cccc(C(F)(F)F)c1` (stereo not given in full), the GI50 in the test with MDA-MB-231 breast was 49.5 µM; with MALME-3M melanoma, 37.1 µM; in the test with MDA-MB-435, over 100 µM; in the test with OVCAR-4 ovarian it was 37.7 µM; with HCT-15 colon it was 52.8 µM; with OVCAR-3 ovarian it was 94.9 µM. For the same compound, the GI50 in the test with MCF7 breast was 41.8 µM; with SF-295 CNS it was 38.2 µM; in the test on A498 renal, 24.5 µM; in the test with HT29 colon, 53 µM. Moreover, the TGI with MDA-MB-231 breast, with MALME-3M melanoma, in the test on MDA-MB-435, in the test with OVCAR-4 ovarian, with HCT-15 colon and in the test on OVCAR-3 ovarian was over 100 µM each time. For the same compound, the TGI in the test with MCF7 breast, in the test on SF-295 CNS, in the test with A498 renal and with HT29 colon was over 100 µM each time.

`O=C1/C(=C/c2ccc(Cl)cc2)CN(Cc2cn(CCNc3ccnc4cc(Cl)ccc34)nn2)C/C1=C\c1ccc(Cl)cc1`: the GI50 with MDA-MB-231 breast was 0.293 µM; in the test with MALME-3M melanoma it was 1.53 µM; in the test with MDA-MB-435, 0.326 µM; with OVCAR-4 ovarian it was 0.353 µM; in the test on HCT-15 colon it was 0.308 µM; in the test on OVCAR-3 ovarian, 0.311 µM. The GI50 in the test with MCF7 breast is 0.376 µM; with SF-295 CNS, 0.222 µM; in the test on A498 renal, 1.14 µM; in the test on HT29 colon, 0.231 µM. Also, the TGI in the test on MDA-MB-231 breast was 0.966 µM; in the test with MALME-3M melanoma it was 3.14 µM; in the test on MDA-MB-435 it was 1.08 µM; in the test with OVCAR-4 ovarian, 1.81 µM; with HCT-15 colon it was 1.06 µM; in the test with OVCAR-3 ovarian it was 0.915 µM. In addition, the TGI was determined as 1.37 µM in the test with MCF7 breast, 0.541 µM with SF-295 CNS, 2.37 µM in the test with A498 renal and 0.489 µM with HT29 colon.

(Values after PubChem BioAssay (NCI).)
